Source: article PMC3913854 (Investigational New Drugs, 2013)
“Also recorded” adds a separate entry of the source.

Tests used:
[1] = in vitro; Nakayama et al., unpublished data, 2012; cited from earlier work
[2] = system: mutant EGFR kinase (L858R and L861Q); conditions: preclinical, Nakayama et al., unpublished data, 2012; cited from earlier work
[3] = system: patients with advanced cancers; conditions: Japanese patients, N = 26, cited from earlier work
malignant cell lines = conditions: preclinical; cited from earlier work
[4] = system: breast cancer resistance protein (BCRP); conditions: in vitro transport studies; Nakayama et al., unpublished data, 2012; cited from earlier work
[5] = phase 1 study: plasma pharmacokinetics; type: in vivo, human
[6] = system: EGFR mutant NSCLC cell line HCC4006; conditions: ref data on file; cited from earlier work
advanced solid tumors = experiment: phase 1 study: tumor response; type: in vivo, human; conditions: for clinical benefit rate: CR, PR or SD durable for > 6 cycles
murine xenograft models = conditions: cited from earlier work
[7] = rats; cited from earlier work
P-glycoprotein (P-gp) = conditions: in vitro transport studies; Nakayama et al., unpublished data, 2012; cited from earlier work
[8] = phase 1 study: CSF distribution and protein binding; type: in vivo, human; conditions: 400 mg BID; for Css,avg,u,CSF (steady-state average unbound CSF concentration): n = 5, calculated by Eq. 1
[9] = system: patients with advanced cancer; experiment: phase 1 dose-escalation study: safety, MTD, DLTs, adverse events; type: in vivo, human
[10] = across an intact or a tumor-compromised BBB; cited from earlier work
[11] = system: brain metastases from HER2+ breast cancer; conditions: monotherapy; N = 242; cited from earlier work

CC(C)(O)CC(=O)NCCn1ccc2ncnc(Nc3ccc(Oc4cccc(C(F)(F)F)c4)c(Cl)c3)c21 [TAK-285]
transcellular permeability [1]: high
inhibition of mutant EGFR kinase activity [2]: inhibits mutant EGFR kinase activity
tolerability [3]: generally well tolerated
partial response ([3]; parotid cancer): 1 patient
maximum tolerated dose (MTD) ([3]; twice daily [BID]): 300 mg
growth of malignant cell lines (malignant cell lines): inhibits the growth
substrate for BBB efflux transporter BCRP [4]: not a substrate
dose-proportionality of steady-state exposures ([5]; 50 mg BID to 500 mg BID): greater than dose-proportional
%CV of steady-state t½ ([5]; 400 mg BID): 11%
increase in geometric mean steady-state AUC0-τ ([5]; 10-fold increase in dose, 50 mg BID to 500 mg BID): 29 fold
extent of accumulation ([5]; MTD of 400 mg BID): approximately 3 fold
pharmacokinetic steady-state achieved ([5]; based on similar trough concentrations on days 8, 15 and 21): ≤ 8 days
time of maximum (peak) plasma concentration ([5]; oral, across cohorts, median): 2 to 3 h
slope of linear regression of log (Css,avg) versus log (Dose) ([5]; power model, 95 % CI, 1.26–1.59): 1.43
%CV in AUC0-τ ([5]; steady-state, MTD of 400 mg BID): 58%
inhibition of cell growth [6]: did not inhibit the growth
clinical benefit rate (advanced solid tumors; RP2D cohort, 1 patient): 13%
stable disease (best response) (advanced solid tumors; RP2D cohort, 4 of 8 patients): 50%
complete or partial response (advanced solid tumors; all cohorts): No patient
clinical benefit rate (advanced solid tumors; dose-escalation cohorts, 3 patients): 9%
stable disease (best response) (advanced solid tumors; dose-escalation cohorts, 9 of 33 patients): 27%
antitumor activity (murine xenograft models): has antitumor activity
BBB penetration / brain distribution [7]: crosses the intact BBB; also recorded: penetrates the BBB
substrate for BBB efflux transporter P-gp (P-glycoprotein (P-gp)): not a substrate
Css,avg,u,CSF (steady-state average unbound CSF concentration) ([8]; geometric mean (%CV)): 1.54 ng/mL
Css,avg,u,CSF (steady-state average unbound CSF concentration) ([8]; range of individual values): 0.51 to 4.27 ng/mL
Kp ([8]; human, CSF (unbound) / plasma (unbound), oral, Cu,CSF:Cu,p ratio, 3 to 4 h postdose day 15, n = 7, mean (%CV)): 0.663
dose-limiting toxicities ([9]; all cohorts, as summarised in abstract): diarrhea, hypokalemia, and fatigue
tolerability ([9]; at the MTD/RP2D of 400 mg BID): generally well tolerated

CS(=O)(=O)CCNCc1ccc(-c2ccc3ncnc(Nc4ccc(OCc5cccc(F)c5)c(Cl)c4)c3c2)o1 [lapatinib, N-{3-chloro-4-[(3-fluorobenzyl)oxy]phenyl}-6-[5-({[2-(methylsulfonyl)ethyl]amino}methyl)-2-furyl]-4-quinazolinamine]
central nervous system (CNS) penetration [10]: negligible
clinical benefit rate [11]: 43%
objective response rate [11]: 6%
patients with ≥ 50 % reduction in CNS tumor size [11]: 8%
